The results in this text go back to patent publication US6774132B1, “Spirooxindole derivatives that act as analgesics” (AstraZeneca AB, priority 1999, dated 2004).

Structures are written as SMILES.

Consider `CCCN1CCCC2(C1)NC(=O)c1ccccc12.Cl` (stereo not shown), for which the melting point – broadly, the temperature of the solid-liquid transition – is 110 to 112 °C.
